Earlier results on two compounds are cited in patent US7235589B2, “Method of treating patients undergoing kidney dialysis” (Bio Numerik Pharmaceuticals, Inc., priority 2004, dated 2007).

Data set [1] deals with mice. As to conditions: intravenously, doses higher than the accepted oral LD50 for common table salt (3750 mg/kg).
Data set [2] deals with dogs. The following applies: intravenously, doses higher than the accepted oral LD50 for common table salt (3750 mg/kg).
The subject of data set [3] is humans. The following applies: doses exceeding 40 g/m^2.
The conditions of data set [4]: accepted value.

As to `O=S(=O)([O-])CCSSCCS(=O)(=O)[O-].[Na+].[Na+]` [dimesna, disodium 2,2′-dithiobis ethane sulfonate], the adverse effects entry in data set [1], in data set [2] and in data set [3] was “no adverse effects” each time.
For the compound `[Cl-].[Na+]` [common table salt], in data set [4], the “oral LD50” value is given as 3750 mg/kg.
